Assay results reported in US20170143701A1, “CARBOHYDRATE METABOLISM-AMELIORATING AGENT” (SUNTORY HOLDINGS LIMITED, priority 2014, published 2017).

Test system: NCI-H716 cells
Assay: In vitro GLP-1 secretion-accelerating action: amount of active GLP-1 secreted (ELISA)
Format: cell-based
Conditions: 1 hour; for Significant difference (p < 0.05) vs control group, amount of active GLP-1 secreted: 10 mM, Student's t-test; for Amount of active GLP-1 secreted (relative value to control group as 100), average value: cyclic dipeptide 10 mM with 10 μM Sitagliptin phosphate, group with no cyclic dipeptide = 100
Protocol: Among the cyclic dipeptides, 92 highly water-soluble cyclic dipeptides were used in the following experiment. In each well of a Poly-L-Lysine 96-well plate, NCI-H716 cells suspended in 100 μL of a DMEM (with 10% FBS, 2 mM glutamine, and 1% antibiotics added in advance) were seeded at 0.5×10^5 cells/well, and cultured in a CO2 incubator (manufactured by ESPEC CORP.) for 48 hours. After washing with PBS(+), 100 μL of a PBS(+) solution with each cyclic dipeptide at a final concentration of 10 mM and 10 μM of Sitagliptin phosphate added therein was added to the cells. After 1 hour, the resultant solution was recovered, and the amount of active GLP-1 in the solution was measured by using the ELISA kit. In the analysis, the amount of active GLP-1 for a group with no cyclic dipeptide added was defined as 100, and relative values thereto were used.

| SMILES | Significant difference (p < 0.05) vs control group, amount of active GLP-1 secreted (Table 3, Experiment 3) | Amount of active GLP-1 secreted (relative value to control group as 100), average value (Table 3, Experiment 3) | further results |
| --- | --- | --- | --- |
| CC(C)CC1NC(=O)C(CCCCN)NC1=O (stereo not shown) [compound 68, Cyclo(Leu-Lys)] |  |  | Significant difference (p < 0.05) vs control group, amount of active GLP-1 secreted (Table 2, Experiment 2): No; Amount of active GLP-1 secreted (relative value to control group as 100), average value (Table 2, Experiment 2): 208 |
| CSCC[C@@H]1NC(=O)[C@H](CCC(N)=O)NC1=O [compound 186, cyclo-glutaminyl-methionine] |  |  | Significant difference (p < 0.05) vs control group, amount of active GLP-1 secreted (Table 4, Experiment 4): Yes; Amount of active GLP-1 secreted (relative value to control group as 100), average value (Table 4, Experiment 4): 191 |
| CC(O)C1NC(=O)C(CCC(=O)O)NC1=O (stereo not shown) [compound 157, Cyclo(Thr-Glu)] | No | 139 |  |
| O=C1CNC(=O)[C@H](Cc2cnc[nH]2)N1 [compound 27, Cyclo(Gly-His)] |  |  | Significant difference (p < 0.05) vs control group, amount of active GLP-1 secreted (Table 5, Experiment 5): No; Amount of active GLP-1 secreted (relative value to control group as 100), average value (Table 5, Experiment 5): 82 |
| NCCCC[C@@H]1NC(=O)[C@H](CC(N)=O)NC1=O [compound 101, cyclo-asparaginyl-lysine] | Yes | 250 |  |
| O=C1N[C@@H](Cc2c[nH]c3ccccc23)C(=O)N2CCC[C@@H]12 [compound 57, Cyclo(Trp-Pro)] |  |  | Significant difference (p < 0.05) vs control group, amount of active GLP-1 secreted (Table 2, Experiment 2): No; Amount of active GLP-1 secreted (relative value to control group as 100), average value (Table 2, Experiment 2): 81 |
| NC(=O)CC[C@@H]1NC(=O)[C@H](CCC(=O)O)NC1=O [compound 130, Cyclo(Gln-Glu)] | No | 120 |  |
| C[C@H](O)[C@@H]1NC(=O)[C@H](CC(N)=O)NC1=O [compound 166, Cyclo(Asn-Thr)] | No | 149 |  |
| O=C(O)CC1NC(=O)C(Cc2cnc[nH]2)NC1=O (stereo not shown) [compound 110, cyclo-aspartyl-histidine] | Yes | 340 |  |
| C[C@H](O)[C@@H]1NC(=O)[C@H](CC(=O)O)NC1=O [compound 165, Cyclo(Asp-Thr)] | No | 140 |  |
| O=C1NC(Cc2c[nH]c3ccccc23)C(=O)NC1CO (stereo not shown) [compound 78, Cyclo(Trp-Ser)] |  |  | Significant difference (p < 0.05) vs control group, amount of active GLP-1 secreted (Table 2, Experiment 2): No; Amount of active GLP-1 secreted (relative value to control group as 100), average value (Table 2, Experiment 2): 119 |
| NC(=O)CC[C@@H]1NC(=O)CNC1=O [compound 126, cyclo-glutaminyl-glycine] | Yes | 210 |  |
| NCCCC[C@@H]1NC(=O)[C@@H]2CCCN2C1=O [compound 58, Cyclo(Lys-Pro)] |  |  | Significant difference (p < 0.05) vs control group, amount of active GLP-1 secreted (Table 2, Experiment 2): No; Amount of active GLP-1 secreted (relative value to control group as 100), average value (Table 2, Experiment 2): 91 |
| C[C@@H]1NC(=O)[C@H](CCC(=O)O)NC1=O [compound 113, Cyclo(Glu-Ala)] | No | 157 |  |
| C[C@H](O)[C@@H]1NC(=O)[C@H](CCCN=C(N)N)NC1=O [compound 168, Cyclo(Arg-Thr)] | No | 142 |  |
| O=C1[C@@H]2CCCN2C(=O)[C@@H]2CCCN12 [compound 6, Cyclo(Pro-Pro)] |  |  | Significant difference (p < 0.05) vs control group, amount of active GLP-1 secreted (Table 1, Experiment 1): No; Amount of active GLP-1 secreted (relative value to control group as 100), average value (Table 1, Experiment 1): 87 |
| O=C(O)C[C@@H]1NC(=O)CNC1=O [compound 32, Cyclo(Asp-Gly)] |  |  | Significant difference (p < 0.05) vs control group, amount of active GLP-1 secreted (Table 5, Experiment 5): Yes; Amount of active GLP-1 secreted (relative value to control group as 100), average value (Table 5, Experiment 5): 12 |
